Patent US20040014942A1, “Mutant strains capable of producing chemically diversified proteins by incorporation of non-conventional amino acids” (priority 2000, published 2004)

Columns and labels:
[1] = system: strain β5366 (wild-type valS allele); assay: Sensitivity to non-canonical amino acids, growth inhibition zone on Petri dishes; assay type: cell-based, E. coli; settings: 100 mM solution in central well
Experimental: (1) 100 mM L-2-amino-butyrate
(2) 100 mM L-2-amino-valerate
(3) 100 mM L-2-3-diamino-propionate

adapted strain β8146 = assay: Phenotypic suppression by metabolic precursors of cysteine; assay type: cell-based, E. coli; settings: 3 mM (L-thiazolidine4-carboxylate acid 2 mM), instead of thymidine or thymine
Text: (§1) The nutritional requirement for cysteine of the adapted strains β8144 and β8146 is utilised to characterise metabolic precursors which can replace cysteine in the culture medium without giving rise to degradation by oxidation. […] However, the addition of none of these substances allows the growth of the strain β1308 leading to chromosomal deletion of the gene thyA of thymidylate synthase, thus excluding their contamination by traces of thymine or thymidine.

adapted strain β8144 = assay: as above; assay type: cell-based, E. coli; settings: 3 mM (L-thiazolidine4-carboxylate acid 2 mM), instead of thymidine or thymine
Text: as §1

strain β5455 = assay: Growth with S-carbamyl-L-cysteine without thymine or thymidine; assay type: cell-based, E. coli; settings: 3 mM S-carbamyl-L-cysteine
Text: A lysate of the phage P1 harvested from such a clone is used to transduce the strain β5366 carrying the plasmidic allele thyA:Val146. […] The other half of the transducers are incapable of this, and require thymine or thymidine to proliferate, just like the strain β5366. This proportion of the phenotypes is in accordance with the genetic distance between the loci valS and nrdD (0.4 mn). Thus, suppression of the false-sense mutation of thyA Cys->Val by a low concentration of exogenous cysteine could result from an alteration of the gene of valyl-tRNA synthetase. […] An A changed into a C causes replacement of the threonine at position 222 by proline, thus confirming the fixation of a genetic alteration in the gene valS of the strain β5455.

[2] = system: strain β5419 with mutator allele dnaQ::miniTn10; assay: Selection on solid medium with S-carbamyl-L-cysteine; assay type: cell-based, E. coli; settings: dishes 0 to 8 mM, without thymidine, 96 hours at 30°, mutator allele only
Text: The strain β5366 carrying the false-sense allele thyA:Val146 on the plasmid pTS1 is transduced with a lysate of the phage P1 harvested on an auxiliary strain of E. coli (β7170, Bouzon et al., 1997) in the chromosome of which a marker of resistance to kanamycin had been introduced at the locus nrdD, neighbour of the locus valS of the gene of valyl-tRNA synthetase, thus producing the strain β5419. A mutator allele of the gene dnaQ is introduced extemporaneously by transduction of the strain β5419 using a lysate of the phage P1 harvested on an auxiliary strain (MS2131, Shapiro, 1990) carrying a marker of resistance to the tetracycline dnaQ::miniTn10. […] After 24 hours, the cells are harvested, and washed twice in an identical volume of culture medium without thymidine. A volume of 0.1 ml of the resultant suspension, corresponding to approximately 10^8 bacteria, is spread on the surface of a series of Petri dishes containing a concentration of S-carbamyl-L-cysteine varying between 0 and 8 mM by adding 1 mM increments of the glucose mineral MS medium (2 g/l). The same procedure is applied to the non-mutator strain β5419, and to the wild-type gene dnaQ. All the Petri dishes are incubated for 96 hours at 30°. […]

[3] = system: strains β5479, β5485 and β5486; assay: Phenotype of new valS mutants from mutator strain; assay type: cell-based, Escherichia coli
Text: Three of these clones served to prepare lysates of the phage P1, which were used to transduce the strain β5366, by selecting for resistance to kanamycin, following the procedure of Example 5. […] The locus valS of the three strains β5479, β5485 and β5486, each corresponding to an SCC-suppressible transducer obtained from one of the three lysates was amplified by PCR and sequenced as described in Example 3. A different localised mutation was found for each of the three strains, viz. Arg 223 changed into His in the strain β5479, Val 276 changed into Ala in the strain β5485 and Asp 230 changed into Asn in the strain β5486.

[4] = system: strain β5274 (thyA:Ile146); assay: Phenotypic suppression by cysteine; assay type: cell-based, E. coli; settings: 0.1 mM isoleucine
Experimental: The plasmid pTS2 thus obtained propagates the allele thyA:Ile146, in which the position 146 occupied in the wild-type thyA gene by the codon UGC of cysteine is occupied by the codon AUA of isoleucine. The strain propagating the plasmidic allele thyA:Ile146, […], proves to require the nutritional addition of thymine, thymidine or cysteine in excess, as in the case of the strain β5366. Phenotypic suppression of the strain β5274 by cysteine is abolished by 0.1 mM isoleucine, just as that of the strain β5366 is abolished by valine. Thus everything happens as if the isoleucyl-tRNA synthetase was capable of forming erroneous Cys-tRNA^Ile's in the presence of an excess of cysteine, and this erroneous formation was prevented by the presence of an excess of isoleucine.

[5] = system: strain β5366 (thyA:Val146); assay: Growth over a cysteine diffusion gradient; assay type: cell-based, E. coli
Text: (§2) The plasmid pTS1 thus obtained propagates the allele thyA:Val146, in which the position 146 occupied in the wild-type thyA gene by the codon UGC of cysteine is occupied by the codon GUA of valine. The plasmid pTS1 is introduced by transformation, carried out according to the method of Sambrook and coll. (1989), in the strain ΔthyA of E. coli K12, β1308 (Lemeignan and coll., 1993), whereof the chromosome gene of the thymidylate synthase, thyA, is deleted. […] Thus, everything happens as if the cysteine could infiltrate the active site of the valyl-tRNA synthetase to form erroneous Cys-tRNA^val's capable of correcting the replacement of cysteine by valine in the active site of the thymidylate synthase. The excess valine would prevent the formation of these erroneous Cys-tRNA^val's.

[6] = system: twelve clones from serial propagation of β5366; assay: Growth factor test of clones after serial culture; assay type: cell-based, E. coli; settings: glucose mineral MS medium dishes
Experimental: The cells are then washed twice with deoxygenated mineral MS medium. A deoxygenated nutritive medium containing 10 ml glucose mineral MS medium to which 1.5 mM cysteine is added is inoculated at 1/100 using washed cells. The cells are then cultivated in anaerobiosis for 24 hours at 30° C. and a fresh tube containing 10 ml deoxygenated cysteine glucose mineral MS medium is inoculated with a 1/100 dilution of the culture at the preceding stationary phase. This procedure is repeated 26 times. At the end of this serial propagation, 12 clones from the liquid culture are isolated on dishes of thymidine (0.3 mM) glucose mineral MS medium (2 g/l) in aerobiosis and kept in suspension in the same liquid medium at −80° C. The twelve clones are tested on dishes containing glucose mineral MS medium with nutritional factors added.

strain β1308 (ΔthyA) = assay: Growth over a cysteine diffusion gradient; assay type: cell-based, E. coli; settings: same conditions
Text: as §2

Row | Compound | effect on growth [1] | replacing cysteine as a growth factor (adapted strain β8146) | replacing cysteine as a growth factor (adapted strain β8144) | further results
1 | NC[C@H](N)C(=O)O [L-2-3-diamino-propionate] | without effect | – | – | –
2 | NC(=O)SC[C@H](N)C(=O)O [S-carbamyl-L-cysteine] | – | capable of replacing cysteine as a growth factor | capable of replacing cysteine as a growth factor | growth in the absence of thymine or thymidine (strain β5455): capable of growing; concentration of S-carbamyl-L-cysteine at which colonies appear [2]: exceeding 2 mM; growth in glucose mineral solid medium without thymidine ([3]; 3 mM SCC, approximately half the transducers): capable of growing
3 | CC[C@H](C)[C@H](N)C(=O)O [isoleucine] | – | – | – | effect on phenotypic suppression by cysteine [4]: abolished
4 | CSC[C@H](N)C(=O)O [S-methyl-L-cysteine] | – | capable of replacing cysteine as a growth factor | capable of replacing cysteine as a growth factor | –
5 | CCC[C@H](N)C(=O)O [L-2-amino-valerate] | without effect | – | – | –
6 | CC(C)[C@H](N)C(=O)O [valine] | – | – | – | effect on growth over a cysteine gradient ([5]; 0.1 mM valine added to Petri dish medium): abolishes the growth
7 | O=C(O)[C@@H]1CSCN1 [L-thiazolidine4-carboxylate acid] | – | capable of replacing cysteine as a growth factor | capable of replacing cysteine as a growth factor | –
8 | L-2-amino-butyrate | without effect | – | – | sensitivity to amino-butyrate ([3]; clones suppressing false-sense mutant Cys 146 Val of thyA): shows sensitivity
9 | N[C@@H](CS)C(=O)O [L-cysteine] | – | – | – | cysteine concentration in culture medium replacing thymine or thymidine as growth factor [6]: at least 1.5 mM; growth over a cysteine diffusion gradient ([5]; 30° C., glucose mineral MS medium, central well 0.1 ml of 400 mM L-cysteine): marginal growth; growth over a cysteine diffusion gradient (strain β1308 (ΔthyA)): does not give rise to any detectable growth
